Assay results taken from the NIST ThermoML archive (doi:10.1021/je1012857).

Experiment: xn = mol fraction of the nth substance listed
Conditions: 101 kPa, Liquid; for speed of sound: Sing-around technique in a fixed-path interferometer; for viscosity: Capillary tube (Ostwald / Ubbelohde) method

NCCN [ethane-1,2-diamine] + CC(C)O
Conditions	mass density, 303.15 K [kg/m3]	mass density, 308.15 K [kg/m3]	mass density, 313.15 K [kg/m3]	speed of sound, 303.15 K [m/s]	speed of sound, 308.15 K [m/s]	speed of sound, 313.15 K [m/s]	viscosity, 308.15 K [mPa·s]
x1 = 0.0557	785.1	780.72	776.266	–	1134	1116.4	1.555
x1 = 0.1036	792.016	787.599	783.114	–	1160.1	1142.2	1.543
x1 = 0.156	799.108	794.649	790.129	–	1187.3	1169.4	1.528
x1 = 0.2011	805.044	800.552	796.005	–	1211.2	1193.2	1.516
x1 = 0.2548	811.904	807.374	802.798	–	1239.8	1221.6	1.497
x1 = 0.3018	817.496	812.943	808.346	–	1264.5	1246.1	1.48
x1 = 0.3892	827.475	822.898	818.281	–	1309.7	1291.2	1.44
x1 = 0.5109	840.354	835.76	831.131	1391.5	1372.1	1353.4	1.375
x1 = 0.605	849.588	844.983	840.349	1439	1419.1	1399.4	1.322
x1 = 0.6988	859.186	854.563	849.909	1489.5	1469.1	1449.1	1.266
x1 = 0.7969	869.028	864.38	859.706	1542.1	1521.1	1500.5	1.205
x1 = 0.8369	872.546	867.885	863.196	1562.4	1541.2	1520.3	1.183
x1 = 0.8931	877.945	873.264	868.56	1592.1	1570.6	1549.4	1.152
x1 = 0.9409	882.985	878.288	873.569	1618.7	1596.8	1575.4	1.129
